The record followed here is patent US20260226048A1, “MULTI-CYCLIC IRAK AND FLT3 INHIBITING COMPOUNDS AND USES THEREOF” (CHILDREN'S HOSPITAL MEDICAL CENTER, priority 2023, published 2026).

Molecules are shown by their SMILES. Where two headings read alike, the source gives them in different places.

One assay deals with MOLM14 F691L cells. Description: MOLM14 F691L cell viability assay (Cell Titer Glo). The note with it: Homo sapiens, read-out: MOLM14 F691L IC50. The assay is classed as cell-based. The method, then:
Both cell lines have activated FLT3 receptors, each of which carry additional resistance mutations in the kinase domain (D835Y and F691L, respectively).
For viability/cytotoxicity assessments, cells were seeded into 1536-well white polystyrene tissue culture-treated Greiner plates using a Multidrop Combi dispenser (ThermoFisher), in final volume 5 μL of growth media per well, at a density of 1000 cells per well. […] Plates were incubated for 48 hours at standard incubator conditions covered by a stainless steel gasketed lid to prevent evaporation. 48 hours post compound addition, 3 μL of Cell Titer Glo (Promega) were added to each well and plates were incubated at room temperature for 15 minutes with the stainless-steel lid in place. Luminescence readings were taken using a Viewlux imager (PerkinElmer) with a 2 second exposure time per plate.
On the technique in general: ATP-based viability assays read luminescence as a measure of living cells.

The target in another assay is T1, IRAK4 (Homo sapiens, UniProt Q9NWZ3).
T1 sequence (Q9NWZ3 1-460): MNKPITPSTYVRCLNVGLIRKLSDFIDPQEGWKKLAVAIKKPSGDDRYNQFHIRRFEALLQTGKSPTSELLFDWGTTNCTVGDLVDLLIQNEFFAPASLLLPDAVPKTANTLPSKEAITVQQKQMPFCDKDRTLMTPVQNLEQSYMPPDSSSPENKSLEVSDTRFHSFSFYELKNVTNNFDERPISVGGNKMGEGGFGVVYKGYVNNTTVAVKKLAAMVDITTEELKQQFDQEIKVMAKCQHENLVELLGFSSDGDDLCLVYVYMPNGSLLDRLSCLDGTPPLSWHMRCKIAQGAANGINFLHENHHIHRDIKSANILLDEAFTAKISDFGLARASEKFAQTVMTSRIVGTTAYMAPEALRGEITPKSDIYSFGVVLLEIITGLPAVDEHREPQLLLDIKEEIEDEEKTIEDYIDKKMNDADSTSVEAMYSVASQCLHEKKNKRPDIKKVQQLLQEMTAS
Description: RBC HotSpot Kinase Assay, IRAK4. Set-up: purchased Reaction Biology (RBC HotSpot). Particulars: isolated kinase enzyme, 33P-ATP, P81 filter-binding. The assay is classed as biochemical. In a few lines:
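Radiometric filter-binding activity assay with isolated recombinant kinase (construct may be truncated or catalytic domain only) in 20 mM Hepes pH 7.5, 10 mM MgCl2, 1 mM EGTA, 2 mM DTT, 1% DMSO. Compound preincubated 20 min with kinase/substrate; reaction started with 33P-ATP, run 2 h at room temperature.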

Another assay deals with T2, FLT3 (Homo sapiens, UniProt P36888).
T2 sequence (P36888 27-993): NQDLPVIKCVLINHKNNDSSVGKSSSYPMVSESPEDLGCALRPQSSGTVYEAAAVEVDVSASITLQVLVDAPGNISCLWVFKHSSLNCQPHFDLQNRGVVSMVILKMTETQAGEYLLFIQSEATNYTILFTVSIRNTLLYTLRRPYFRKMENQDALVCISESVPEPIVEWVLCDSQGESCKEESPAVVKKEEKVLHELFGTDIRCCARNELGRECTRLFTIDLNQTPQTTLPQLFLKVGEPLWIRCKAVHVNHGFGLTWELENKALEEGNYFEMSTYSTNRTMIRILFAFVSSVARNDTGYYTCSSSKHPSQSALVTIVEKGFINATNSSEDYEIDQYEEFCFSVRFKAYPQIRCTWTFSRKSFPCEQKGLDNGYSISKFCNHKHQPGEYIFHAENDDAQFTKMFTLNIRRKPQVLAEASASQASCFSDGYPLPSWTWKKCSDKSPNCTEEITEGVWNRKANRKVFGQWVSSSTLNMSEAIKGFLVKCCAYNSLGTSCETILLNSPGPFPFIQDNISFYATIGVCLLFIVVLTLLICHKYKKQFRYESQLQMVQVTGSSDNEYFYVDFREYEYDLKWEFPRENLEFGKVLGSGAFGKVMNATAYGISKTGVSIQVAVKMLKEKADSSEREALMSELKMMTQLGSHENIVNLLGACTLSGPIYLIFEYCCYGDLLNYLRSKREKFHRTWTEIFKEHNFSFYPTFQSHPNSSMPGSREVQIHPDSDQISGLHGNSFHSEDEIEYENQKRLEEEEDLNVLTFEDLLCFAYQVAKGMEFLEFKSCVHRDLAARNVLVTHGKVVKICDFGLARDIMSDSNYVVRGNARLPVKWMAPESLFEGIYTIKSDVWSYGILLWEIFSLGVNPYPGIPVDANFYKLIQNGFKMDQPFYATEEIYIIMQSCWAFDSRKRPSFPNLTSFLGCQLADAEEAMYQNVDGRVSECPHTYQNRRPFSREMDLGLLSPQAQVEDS
Description: RBC HotSpot Kinase Assay, FLT3. The assay is classed as biochemical. Set-up: purchased Reaction Biology (RBC HotSpot). Particulars: isolated kinase enzyme, 33P-ATP, P81 filter-binding. The method, boiled down:
(§1)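 Reactions ran in 20 mM Hepes (pH 7.5) containing 10 mM MgCl2, 1 mM EGTA, 0.1 mM Na3VO4, 2 mM DTT, 0.02 mg/ml BSA, 0.01% Brij35 and 1% DMSO, plus required cofactors. Functional activity readout on the expressible enzyme form, sometimes C-terminally truncated or lacking receptor regulatory regions.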

The next assay concerns MOLM14 D835Y cells. Description: MOLM14 D835Y cell viability assay (Cell Titer Glo). The format is cell-based. Particulars: Homo sapiens, MOLM-14, 48 h, read-out: MOLM14 D835Y IC50. In a few lines:
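Luminescent ATP read-out (CellTiter-Glo, 15 min room temperature) taken 48 h after compound addition. Cells were MOLM14 carrying FLT3 D835Y or F691L mutations, plated at 1000 cells per well.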

In the next assay the target is T3, IRAK1 (Homo sapiens, UniProt P51617).
T3 construct: purchased Reaction Biology (RBC HotSpot)
T3 sequence (P51617 whole entry): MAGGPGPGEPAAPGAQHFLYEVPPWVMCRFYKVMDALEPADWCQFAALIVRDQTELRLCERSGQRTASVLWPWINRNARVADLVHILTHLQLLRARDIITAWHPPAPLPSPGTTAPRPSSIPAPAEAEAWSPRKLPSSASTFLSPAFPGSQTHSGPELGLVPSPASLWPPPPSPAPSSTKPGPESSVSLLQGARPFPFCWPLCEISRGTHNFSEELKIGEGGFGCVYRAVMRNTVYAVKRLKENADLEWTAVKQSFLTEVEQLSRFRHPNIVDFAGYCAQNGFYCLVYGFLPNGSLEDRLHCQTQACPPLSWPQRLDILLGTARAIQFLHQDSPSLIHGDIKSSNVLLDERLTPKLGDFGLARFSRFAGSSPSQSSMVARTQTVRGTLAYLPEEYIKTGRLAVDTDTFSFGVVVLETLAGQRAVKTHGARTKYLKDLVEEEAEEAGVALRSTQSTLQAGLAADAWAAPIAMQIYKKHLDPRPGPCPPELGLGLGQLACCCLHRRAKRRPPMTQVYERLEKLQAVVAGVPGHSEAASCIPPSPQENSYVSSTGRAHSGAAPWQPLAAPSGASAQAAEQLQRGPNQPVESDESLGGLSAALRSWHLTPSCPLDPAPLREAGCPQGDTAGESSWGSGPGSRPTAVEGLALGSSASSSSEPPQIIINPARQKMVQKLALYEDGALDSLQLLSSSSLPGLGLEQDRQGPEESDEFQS
Kind of assay: RBC HotSpot Kinase Assay, IRAK1. Particulars: isolated kinase enzyme, 33P-ATP, P81 filter-binding. The assay is classed as biochemical. The method, boiled down: as §1

Where [1] appears, read: MOLM-14, cell viability, Cell Titer Glo, 48 hours.
Setting [2] is: cell viability, Cell Titer Glo, 48 hours.

For orientation: IC50 means the point on the concentration scale where inhibition reaches its midpoint. For the compound `COc1cc2ncc(-c3nc(N[C@H]4CNC[C@@H]4F)ncc3F)n2nc1C1CCC1` [Compound 52a, 4-(6-cyclobutyl-7-methoxyimidazo[1,2-b]pyridazin-3-yl)-5-fluoro-N-((3S,4S)-4-fluoropyrrolidin-3-yl)pyrimidin-2-amine], the IC50 in the assay with MOLM14 F691L cells (setting [1]) was 45 nM; at IRAK4, 0.9 nM; on FLT3, less than 0.5 nM; in the assay with MOLM14 D835Y cells (setting [2]), 3 nM; at IRAK1 it was 0.8 nM.

Turning to `COc1cc2ncc(-c3nc(N[C@@H]4CCCNC4)ncc3F)n2nc1C1CCC1` [Compound 53a, (R)-4-(6-cyclobutyl-7-methoxyimidazo[1,2-b]pyridazin-3-yl)-5-fluoro-N-(piperidin-3-yl)pyrimidin-2-amine], the IC50 in the assay on MOLM14 F691L cells (setting [1]) is 10 nM; on IRAK4, less than 0.5 nM; at FLT3 it was less than 0.5 nM; in the assay with MOLM14 D835Y cells (setting [2]), 1 nM; on IRAK1 it was 1 nM.

In the case of `COc1cc2ncc(-c3nc(N[C@H]4CNC[C@@H]4F)ncc3F)n2nc1C1CC(C)(C)C1` [Compound 55a, 4-(6-(3,3-dimethylcyclobutyl)-7-methoxyimidazo[1,2-b]pyridazin-3-yl)-5-fluoro-N-((3S,4S)-4-fluoropyrrolidin-3-yl)pyrimidin-2-amine], the IC50 is 225 nM in the assay with MOLM14 F691L cells (setting [1]); 2 nM at IRAK4; less than 0.5 nM at FLT3; 28 nM in the assay on MOLM14 D835Y cells (setting [2]); 5 nM on IRAK1.

In the case of `COc1cc2ncc(-c3nc(N[C@@H]4CCCNC4)ncc3F)n2nc1C1CC(C)(C)C1` [Compound 56a, (R)-4-(6-(3,3-dimethylcyclobutyl)-7-methoxyimidazo[1,2-b]pyridazin-3-yl)-5-fluoro-N-(piperidin-3-yl)pyrimidin-2-amine], the IC50 with MOLM14 F691L cells (setting [1]) is 71 nM; at IRAK4, 2 nM; on FLT3, less than 0.5 nM; in the assay with MOLM14 D835Y cells (setting [2]) it was 8 nM; on IRAK1, 0.7 nM.

As to `COc1cc2ncc(-c3nc(N[C@H]4CNC[C@@H]4F)ncc3F)n2nc1C1CC2(CCC2)C1` [Compound 58a, 5-fluoro-N-((3S,4S)-4-fluoropyrrolidin-3-yl)-4-(7-methoxy-6-(spiro[3.3]heptan-2-yl)imidazo[1,2-b]pyridazin-3-yl)pyrimidin-2-amine], the IC50 in the assay on MOLM14 F691L cells (setting [1]) is 127 nM; at IRAK4 it was 5 nM; on FLT3, less than 0.5 nM; with MOLM14 D835Y cells (setting [2]), 14 nM; on IRAK1 it was 7 nM.

Take `COc1cc2ncc(-c3nc(N[C@H]4CNC[C@@H]4F)ncc3F)n2nc1C1CCCC1` [Compound 61a, 4-(6-cyclopentyl-7-methoxyimidazo[1,2-b]pyridazin-3-yl)-5-fluoro-N-((3S,4S)-4-fluoropyrrolidin-3-yl)pyrimidin-2-amine]: the IC50 in the assay on MOLM14 F691L cells (setting [1]) was 28 nM; on IRAK4 it was less than 0.5 nM; at FLT3 it was less than 0.5 nM; in the assay on MOLM14 D835Y cells (setting [2]), 3 nM; on IRAK1 it was less than 0.5 nM.

With `COc1cc2ncc(-c3nc(N[C@@H]4CCCNC4)ncc3F)n2nc1C1CCCC1` [Compound 62a, (R)-4-(6-cyclopentyl-7-methoxyimidazo[1,2-b]pyridazin-3-yl)-5-fluoro-N-(piperidin-3-yl)pyrimidin-2-amine], the IC50 was 9 nM in the assay with MOLM14 F691L cells (setting [1]); less than 0.5 nM on IRAK4; less than 0.5 nM at FLT3; 1 nM with MOLM14 D835Y cells (setting [2]); 0.6 nM at IRAK1.

For the compound `COc1cc2ncc(-c3nc(N[C@H]4CNCC[C@@H]4F)ncc3F)n2nc1C1CCCC1` [Compound 63a, 4-(6-cyclopentyl-7-methoxyimidazo[1,2-b]pyridazin-3-yl)-5-fluoro-N-((3S,4S)-4-fluoropiperidin-3-yl)pyrimidin-2-amine], the IC50 in the assay on MOLM14 F691L cells (setting [1]) was 13 nM; on IRAK4, less than 0.5 nM; on FLT3, less than 0.5 nM; with MOLM14 D835Y cells (setting [2]), 2 nM; at IRAK1, less than 0.5 nM.

In the case of `COc1cc2ncc(-c3nc(N[C@H]4CNC[C@@H]4F)ncc3F)n2nc1C1CCCCC1` [Compound 64a, 4-(6-cyclohexyl-7-methoxyimidazo[1,2-b]pyridazin-3-yl)-5-fluoro-N-((3S,4S)-4-fluoropyrrolidin-3-yl)pyrimidin-2-amine], the IC50 with MOLM14 F691L cells (setting [1]) is 57 nM; at IRAK4, less than 0.5 nM; on FLT3 it was less than 0.5 nM; in the assay with MOLM14 D835Y cells (setting [2]), 6 nM; on IRAK1, less than 0.5 nM.

For `COc1cc2ncc(-c3nc(N[C@@H]4CCCNC4)ncc3F)n2nc1C1CCCCC1` [Compound 65a, (R)-4-(6-cyclohexyl-7-methoxyimidazo[1,2-b]pyridazin-3-yl)-5-fluoro-N-(piperidin-3-yl)pyrimidin-2-amine], the IC50 in the assay with MOLM14 F691L cells (setting [1]) was 18 nM; at IRAK4 it was less than 0.5 nM; on FLT3, less than 0.5 nM; with MOLM14 D835Y cells (setting [2]) it was 3 nM; at IRAK1, less than 0.5 nM.

Turning to `COc1cc2ncc(-c3nc(N[C@H]4CNCC[C@@H]4F)ncc3F)n2nc1C1CCCCC1` [Compound 66a, 4-(6-cyclohexyl-7-methoxyimidazo[1,2-b]pyridazin-3-yl)-5-fluoro-N-((3S,4S)-4-fluoropiperidin-3-yl)pyrimidin-2-amine], the IC50 in the assay with MOLM14 F691L cells (MOLM-14, 48 h) is 28 nM; at IRAK4, 0.6 nM; on FLT3, less than 0.5 nM; with MOLM14 D835Y cells, 4 nM; on IRAK1, less than 0.5 nM.

Consider `COc1cc2ncc(-c3nc(N[C@H]4CNC[C@@H]4F)ncc3F)n2nc1C12CC(C1)C2` [Compound 67a, 4-(6-(bicyclo[1.1.1]pentan-1-yl)-7-methoxyimidazo[1,2-b]pyridazin-3-yl)-5-fluoro-N-((3S,4S)-4-fluoropyrrolidin-3-yl)pyrimidin-2-amine], for which the IC50 was 57 nM in the assay with MOLM14 F691L cells (setting [1]); 0.9 nM on IRAK4; less than 0.5 nM on FLT3; 9 nM with MOLM14 D835Y cells (setting [2]); 1 nM at IRAK1.

`COc1cc2ncc(-c3nc(N[C@H]4CNCC[C@@H]4F)ncc3F)n2nc1C12CC(C1)C2` [Compound 69a, 4-(6-(bicyclo[1.1.1]pentan-1-yl)-7-methoxyimidazo[1,2-b]pyridazin-3-yl)-5-fluoro-N-((3S,4S)-4-fluoropiperidin-3-yl)pyrimidin-2-amine]: the IC50 with MOLM14 F691L cells (setting [1]) was 25 nM; on IRAK4 it was 0.7 nM; at FLT3, less than 0.5 nM; in the assay on MOLM14 D835Y cells (setting [2]), 3 nM; at IRAK1, 0.9 nM.
